Source: patent US20250230193A1, “CYCLIC COMPOUND HAVING SELECTIVE KRAS INHIBITORY EFFECT ON HRAS AND NRAS” (CHUGAI SEIYAKU KABUSHIKI KAISHA, priority 2022, published 2025)

Legend:
[1] = target: GDP-bound NRAS wild-type protein (Homo sapiens, UniProt P01111); assay: Binding to NRAS by surface plasmon resonance (SPR), Single Cycle Kinetics; conditions: KD ratio, GDP-bound NRAS wild-type vs GDP-bound KRAS wild-type, SPR
[2] = target: GDP-bound HRAS wild-type protein (Homo sapiens, UniProt P01112); assay: Binding to HRAS by surface plasmon resonance (SPR), Single Cycle Kinetics; conditions: KD ratio, GDP-bound HRAS wild-type vs GDP-bound KRAS wild-type, SPR
Sequence of GDP-bound HRAS wild-type protein (P01112 whole entry): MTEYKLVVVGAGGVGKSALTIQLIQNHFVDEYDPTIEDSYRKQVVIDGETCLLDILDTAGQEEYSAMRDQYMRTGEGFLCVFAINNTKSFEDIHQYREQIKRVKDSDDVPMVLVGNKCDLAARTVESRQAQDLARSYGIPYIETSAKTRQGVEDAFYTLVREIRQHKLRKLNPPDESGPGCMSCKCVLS

Sequence of GDP-bound NRAS wild-type protein (P01111 whole entry): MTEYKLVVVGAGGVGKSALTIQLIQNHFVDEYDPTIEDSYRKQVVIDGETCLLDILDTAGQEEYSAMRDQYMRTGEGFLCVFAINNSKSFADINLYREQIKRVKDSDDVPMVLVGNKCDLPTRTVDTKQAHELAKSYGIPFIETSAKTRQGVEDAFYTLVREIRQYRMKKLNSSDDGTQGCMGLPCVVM

Compound | NRAS/KRAS (ratio of KD value with respect to NRAS to KD value with respect to KRAS) [1] | HRAS/KRAS (ratio of KD value with respect to HRAS to KD value with respect to KRAS) [2]
CCO[C@@H]1C[C@H]2C(=O)NC3(CCC3)C(=O)N(C)[C@@H](C3CCCC3)C(=O)N(C)[C@H](C(=O)N(C)C)CC(=O)N(C)[C@@H](CC3CCCC3)C(=O)N[C@@H]([C@@H](C)CC)C(=O)N(C)CC(=O)N(C)[C@H]3C/C=C\CCN(C3=O)[C@@H](Cc3ccc(C(F)(F)F)cc3)C(=O)N(C)CC(=O)N[C@@H](CCc3cc(F)c(C(F)(F)F)c(F)c3)C(=O)N2C1 [PP1112] | A (a compound having 10 or more and less than 20 is denoted as A) | B (a compound having 3 or more and less than 10 is denoted as B)
CCO[C@@H]1C[C@H]2C(=O)NC3(CCC3)C(=O)N(C)[C@@H](C3CCCC3)C(=O)N(C)[C@H](C(=O)N(C)C)CC(=O)N(C)[C@@H](COC)C(=O)N[C@@H]([C@@H](C)CC)C(=O)N(C)CC(=O)N(C)[C@H]3C/C=C\CCN(C3=O)[C@@H](Cc3ccc(C(F)(F)F)cc3)C(=O)N(C)CC(=O)N[C@@H](CCc3cc(F)c(C(F)(F)F)c(F)c3)C(=O)N2C1 [PP1113] | A (a compound having 10 or more and less than 20 is denoted as A) | A (a compound having 10 or more and less than 20 is denoted as A)
C=CC[C@H]1C(=O)N[C@@H]([C@@H](C)CC)C(=O)N(C)CC(=O)N(C)[C@H]2C/C=C\CCN(C2=O)[C@@H](Cc2ccc(C(F)(F)F)cc2)C(=O)N(C)CC(=O)N[C@@H](CCc2cc(F)c(C(F)(F)F)c(F)c2)C(=O)N2C[C@H](OCC)C[C@H]2C(=O)NC2(CCC2)C(=O)N(C)[C@@H](C2CCCC2)C(=O)N(C)[C@H](C(=O)N(C)C)CC(=O)N1C [PP1114] | A (a compound having 10 or more and less than 20 is denoted as A) | A (a compound having 10 or more and less than 20 is denoted as A)
C#CC[C@H]1C(=O)N[C@@H]([C@@H](C)CC)C(=O)N(C)CC(=O)N(C)[C@H]2C/C=C\CCN(C2=O)[C@@H](Cc2ccc(C(F)(F)F)cc2)C(=O)N(C)CC(=O)N[C@@H](CCc2cc(F)c(C(F)(F)F)c(F)c2)C(=O)N2C[C@H](OCC)C[C@H]2C(=O)NC2(CCC2)C(=O)N(C)[C@@H](C2CCCC2)C(=O)N(C)[C@H](C(=O)N(C)C)CC(=O)N1C [PP1115] | A (a compound having 10 or more and less than 20 is denoted as A) | A (a compound having 10 or more and less than 20 is denoted as A)
CCO[C@@H]1C[C@H]2C(=O)NC3(CCC3)C(=O)N(C)[C@@H](C3CCCC3)C(=O)N(C)[C@H](C(=O)N(C)C)CC(=O)N(C)[C@@H](Cc3ccccc3)C(=O)N[C@@H]([C@@H](C)CC)C(=O)N(C)CC(=O)N(C)[C@H]3C/C=C\CCN(C3=O)[C@@H](Cc3ccc(C(F)(F)F)cc3)C(=O)N(C)CC(=O)N[C@@H](CCc3cc(F)c(C(F)(F)F)c(F)c3)C(=O)N2C1 [PP1116] | A (a compound having 10 or more and less than 20 is denoted as A) | A (a compound having 10 or more and less than 20 is denoted as A)
CCO[C@@H]1C[C@H]2C(=O)NC3(CCC3)C(=O)N(C)[C@@H](C3CCCC3)C(=O)N(C)[C@H](C(=O)N(C)C)CC(=O)N(C)[C@@H](CC(C)(C)C)C(=O)N[C@@H]([C@@H](C)CC)C(=O)N(C)CC(=O)N(C)[C@H]3C/C=C\CCN(C3=O)[C@@H](Cc3ccc(C(F)(F)F)cc3)C(=O)N(C)CC(=O)N[C@@H](CCc3cc(F)c(C(F)(F)F)c(F)c3)C(=O)N2C1 [PP1117] | A (a compound having 10 or more and less than 20 is denoted as A) | A (a compound having 10 or more and less than 20 is denoted as A)
CCO[C@@H]1C[C@H]2C(=O)NC3(CCC3)C(=O)N(C)[C@@H](C3CCCC3)C(=O)N(C)[C@H](C(=O)N(C)C)CC(=O)N(C)[C@@H](CC3CCC3)C(=O)N[C@@H]([C@@H](C)CC)C(=O)N(C)CC(=O)N(C)[C@H]3C/C=C\CCN(C3=O)[C@@H](Cc3ccc(C(F)(F)F)cc3)C(=O)N(C)CC(=O)N[C@@H](CCc3cc(F)c(C(F)(F)F)c(F)c3)C(=O)N2C1 [PP1118] | A (a compound having 10 or more and less than 20 is denoted as A) | B (a compound having 3 or more and less than 10 is denoted as B)
CCO[C@@H]1C[C@H]2C(=O)NC3(CCC3)C(=O)N(C)[C@@H](C3CCCC3)C(=O)N(C)[C@H](C(=O)N(C)C)CC(=O)N(C)[C@@H](CSC)C(=O)N[C@@H]([C@@H](C)CC)C(=O)N(C)CC(=O)N(C)[C@H]3C/C=C\CCN(C3=O)[C@@H](Cc3ccc(C(F)(F)F)cc3)C(=O)N(C)CC(=O)N[C@@H](CCc3cc(F)c(C(F)(F)F)c(F)c3)C(=O)N2C1 [PP1119] | A (a compound having 10 or more and less than 20 is denoted as A) | A (a compound having 10 or more and less than 20 is denoted as A)
CCO[C@@H]1C[C@H]2C(=O)NC3(CCC3)C(=O)N(C)[C@@H](C3CCCC3)C(=O)N(C)[C@H](C(=O)N(C)C)CC(=O)N(C)[C@@H](CC(F)F)C(=O)N[C@@H]([C@@H](C)CC)C(=O)N(C)CC(=O)N(C)[C@H]3C/C=C\CCN(C3=O)[C@@H](Cc3ccc(C(F)(F)F)cc3)C(=O)N(C)CC(=O)N[C@@H](CCc3cc(F)c(C(F)(F)F)c(F)c3)C(=O)N2C1 [PP1120] | A (a compound having 10 or more and less than 20 is denoted as A) | A (a compound having 10 or more and less than 20 is denoted as A)
CCO[C@@H]1C[C@H]2C(=O)NC3(CCC3)C(=O)N(C)[C@@H](C3CCCC3)C(=O)N(C)[C@H](C(=O)N(C)C)CC(=O)N(C)[C@@H](CCC(F)F)C(=O)N[C@@H]([C@@H](C)CC)C(=O)N(C)CC(=O)N(C)[C@H]3C/C=C\CCN(C3=O)[C@@H](Cc3ccc(C(F)(F)F)cc3)C(=O)N(C)CC(=O)N[C@@H](CCc3cc(F)c(C(F)(F)F)c(F)c3)C(=O)N2C1 [PP1121] | A (a compound having 10 or more and less than 20 is denoted as A) | A (a compound having 10 or more and less than 20 is denoted as A)
CCO[C@@H]1C[C@H]2C(=O)NC3(CCC3)C(=O)N(C)[C@@H](C3CCCC3)C(=O)N(C)[C@H](C(=O)N(C)C)CC(=O)N(C)[C@@H](CCC(=O)N(C)C)C(=O)N[C@@H]([C@@H](C)CC)C(=O)N(C)CC(=O)N(C)[C@H]3C/C=C\CCN(C3=O)[C@@H](Cc3ccc(C(F)(F)F)cc3)C(=O)N(C)CC(=O)N[C@@H](CCc3cc(F)c(C(F)(F)F)c(F)c3)C(=O)N2C1 [PP1122] | A (a compound having 10 or more and less than 20 is denoted as A) | B (a compound having 3 or more and less than 10 is denoted as B)
CCO[C@@H]1C[C@H]2C(=O)NC3(CCC3)C(=O)N(C)[C@@H](C3CCCC3)C(=O)N(C)[C@H](C(=O)N(C)C)CC(=O)N(C)[C@@H](Cc3cccs3)C(=O)N[C@@H]([C@@H](C)CC)C(=O)N(C)CC(=O)N(C)[C@H]3C/C=C\CCN(C3=O)[C@@H](Cc3ccc(C(F)(F)F)cc3)C(=O)N(C)CC(=O)N[C@@H](CCc3cc(F)c(C(F)(F)F)c(F)c3)C(=O)N2C1 [PP1123] | A (a compound having 10 or more and less than 20 is denoted as A) | B (a compound having 3 or more and less than 10 is denoted as B)
CCO[C@@H]1C[C@H]2C(=O)NC3(CCC3)C(=O)N(C)[C@@H](C3CCCC3)C(=O)N(C)[C@H](C(=O)N(C)C)CC(=O)N(C)[C@@H](CC(F)(F)F)C(=O)N[C@@H]([C@@H](C)CC)C(=O)N(C)CC(=O)N(C)[C@H]3C/C=C\CCN(C3=O)[C@@H](Cc3ccc(C(F)(F)F)cc3)C(=O)N(C)CC(=O)N[C@@H](CCc3cc(F)c(C(F)(F)F)c(F)c3)C(=O)N2C1 [PP1124] | A (a compound having 10 or more and less than 20 is denoted as A) | B (a compound having 3 or more and less than 10 is denoted as B)
CCO[C@@H]1C[C@H]2C(=O)NC3(CCC3)C(=O)N(C)[C@@H](C3CCCC3)C(=O)N(C)[C@H](C(=O)N(C)C)CC(=O)N(C)[C@@H](Cc3cccc(F)c3)C(=O)N[C@@H]([C@@H](C)CC)C(=O)N(C)CC(=O)N(C)[C@H]3C/C=C\CCN(C3=O)[C@@H](Cc3ccc(C(F)(F)F)cc3)C(=O)N(C)CC(=O)N[C@@H](CCc3cc(F)c(C(F)(F)F)c(F)c3)C(=O)N2C1 [PP1126] | A (a compound having 10 or more and less than 20 is denoted as A) | A (a compound having 10 or more and less than 20 is denoted as A)
CCO[C@@H]1C[C@H]2C(=O)NC3(CCC3)C(=O)N(C)[C@@H](C3CCCC3)C(=O)N(C)[C@H](C(=O)N(C)C)CC(=O)N(C)[C@@H](Cc3cccc(Cl)c3)C(=O)N[C@@H]([C@@H](C)CC)C(=O)N(C)CC(=O)N(C)[C@H]3C/C=C\CCN(C3=O)[C@@H](Cc3ccc(C(F)(F)F)cc3)C(=O)N(C)CC(=O)N[C@@H](CCc3cc(F)c(C(F)(F)F)c(F)c3)C(=O)N2C1 [PP1127] | AA (a compound having 20 or more is denoted as AA) | A (a compound having 10 or more and less than 20 is denoted as A)
CC[C@H](C)[C@@H]1NC(=O)[C@H](CC)N(C)C(=O)C[C@@H](C(=O)N(C)C)N(C)C(=O)[C@H](C2CCCC2)N(C)C(=O)C2(CCC2)NC(=O)[C@@H]2C[C@H](OC)CN2C(=O)[C@H](CCc2cc(F)c(C(F)(F)F)c(F)c2)NC(=O)CN(C)C(=O)[C@H](Cc2ccc(C(F)(F)F)cc2)N2CC/C=C\C[C@@H](C2=O)N(C)C(=O)CN(C)C1=O [PP1128] | AA (a compound having 20 or more is denoted as AA) | A (a compound having 10 or more and less than 20 is denoted as A)
